Measured values: patent US20260232666A1, “COMPOSITIONS AND METHODS FOR INHIBITION OF RAS” (TheRas, Inc., priority 2023, published 2026)
pIC50: −log10 of the molar value.

Legend:
[1] = system: pERK in NCI-H358 cells; assay: Cell-based pERK HTRF assay (pERK inhibition in H358 cells); conditions: 30 min incubation
Method in brief: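 NCI-H358 cells were seeded at 4×10^4 cells/well in RPMI/10% FBS, then treated next day for 30 min at 0.25% DMSO (9-point, 3-fold series from 75 μM). Lysates were read by HTRF (d2/Eu cryptate antibody pair, 615 nm emission) after 4–24 h at room temperature to give pERK IC50.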

[2] = target: T1, GTP-loaded KRAS4b (amino acids 1-169) G12C/C118S protein (Homo sapiens, UniProt P01116, C118S/G12C); assay: Covalent cysteine 12 modification by MALDI-TOF MS, GTP-loaded KRAS G12C; format: binding; conditions: 15 minutes reaction time point
T1 construct: KRAS4b (amino acids 1-169) G12C/C118S protein; made in house
Method in brief: (§1)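 Covalent labelling is scored at 15 min by MALDI-TOF mass spectrometry, using 1 μM protein with compound at a 1:2.5 protein-to-compound ratio at room temperature.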

[3] = target: T2, GppNHp-loaded KRAS4b (amino acids 1-169) G12C/C118S protein (Homo sapiens, UniProt P01116, C118S/G12C); assay: Covalent cysteine 12 modification by MALDI-TOF MS, GppNHp-loaded KRAS G12C; format: binding; conditions: 15 minutes reaction time point
T2 construct: KRAS4b (amino acids 1-169) G12C/C118S protein; made in house
Method in brief: as §1

[4] = target: T3, GDP-loaded KRAS4b (amino acids 1-169) G12C/C118S protein (Homo sapiens, UniProt P01116, C118S/G12C); assay: Covalent cysteine 12 modification by MALDI-TOF MS, GDP-loaded KRAS G12C; format: binding; conditions: 15 minutes reaction time point
T3 construct: KRAS4b (amino acids 1-169) G12C/C118S protein; made in house
Method in brief: as §1

SMILES | pIC50 ([1]; Homo sapiens, NCI-H358, 0.5 h) | GTP-KRAS G12C percent of modification [2] | GppNHp-KRAS G12C percent of modification [3] | GDP-KRAS G12C percent of modification [4] | pIC50 [1]
C=CC(=O)N1C[C@H](C)N(c2nc(OC[C@@]34CCCN3C[C@H](F)C4)nc3c(F)c(-c4ccc(F)c5sc(N)c(C#N)c45)c(Cl)cc23)C[C@H]1C (atropisomer, axis not shown) [Compound 102] | > 7.00 | A (percent of modification ≥70%) | A (percent of modification ≥70%) | A (percent of modification ≥70%) | 
C=CC(=O)N1C[C@H](C)N(c2nc(OC[C@@]34CCCN3C[C@H](F)C4)nc3c(F)c(-c4ccc(F)c5sc(N)c(C#N)c45)c(Cl)cc23)C[C@H]1C (atropisomer, axis not shown) [Compound 103] |  | D (percent of modification <10%) | D (percent of modification <10%) | D (percent of modification <10%) | 6.00 to 7.00
C=CC(=O)N1CC[C@@H](N(C)c2nc(OC[C@@H]3CC4(CC4)CN3C)nc3c(F)c(-c4ccc(F)c5sc(N)c(C#N)c45)c(C(F)(F)F)cc23)[C@@H]1C (atropisomer, axis not shown) [Compound 111] | > 7.00 | A (percent of modification ≥70%) | A (percent of modification ≥70%) | A (percent of modification ≥70%) | 
C=CC(=O)N1CC[C@@H](N(CC)c2nc(OC[C@@H]3C[C@@H](F)CN3C)nc3c(F)c(-c4ccc(F)c5sc(N)c(C#N)c45)c(C(F)(F)F)cc23)[C@H]1C (atropisomer, axis not shown) [Compound 113] |  | A (percent of modification ≥70%) | A (percent of modification ≥70%) | A (percent of modification ≥70%) | > 7.00
C=CC(=O)N1CC[C@@H](N(CC)c2nc(OC[C@@H]3C[C@@H](F)CN3C)nc3c(F)c(-c4ccc(F)c5sc(N)c(C#N)c45)c(C(F)(F)F)cc23)[C@H]1C (atropisomer, axis not shown) [Compound 114] |  | D (percent of modification <10%) | D (percent of modification <10%) | D (percent of modification <10%) | < 6.00
C=CC(=O)N1CC[C@@H](N(C)c2nc(OC[C@@H]3CCCN3C)nc3c(F)c(-c4ccc(F)c5sc(N)c(C#N)c45)c(Cl)cc23)[C@H]1C (atropisomer, axis not shown) [Compound 118] |  | A (percent of modification ≥70%) | A (percent of modification ≥70%) | A (percent of modification ≥70%) | > 7.00
C=CC(=O)N1CC[C@@H](N(C)c2nc(OC[C@@H]3CCCN3C)nc3c(F)c(-c4ccc(F)c5sc(N)c(C#N)c45)c(Cl)cc23)[C@H]1C (atropisomer, axis not shown) [Compound 119] |  | D (percent of modification <10%) | D (percent of modification <10%) | D (percent of modification <10%) | < 6.00
C=CC(=O)N1CC[C@@H](N(CC)c2nc(OC[C@@H]3CC4(CC4)CN3C)nc3c(F)c(-c4ccc(F)c5sc(N)c(C#N)c45)c(Cl)cc23)[C@H]1C (atropisomer, axis not shown) [Compound 120] |  | A (percent of modification ≥70%) | A (percent of modification ≥70%) | A (percent of modification ≥70%) | > 7.00
C=CC(=O)N1CC[C@@H](N(CC)c2nc(OC[C@@H]3CC4(CC4)CN3C)nc3c(F)c(-c4ccc(F)c5sc(N)c(C#N)c45)c(Cl)cc23)[C@H]1C (atropisomer, axis not shown) [Compound 121] |  | D (percent of modification <10%) | D (percent of modification <10%) | D (percent of modification <10%) | < 6.00
C=CC(=O)N1CC[C@@H](N(C)c2nc(OC[C@@H]3CCCN3C)nc3c(F)c(-c4ccc(F)c5sc(N)c(C#N)c45)c(C(F)(F)F)cc23)[C@H]1C (atropisomer, axis not shown) [Compound 131] |  | A (percent of modification ≥70%) | A (percent of modification ≥70%) | A (percent of modification ≥70%) | > 7.00
C=CC(=O)N1CC[C@@H](N(C)c2nc(OC[C@@H]3CCCN3C)nc3c(F)c(-c4ccc(F)c5sc(N)c(C#N)c45)c(C(F)(F)F)cc23)[C@H]1C (atropisomer, axis not shown) [Compound 132] |  | D (percent of modification <10%) | D (percent of modification <10%) | D (percent of modification <10%) | < 6.00
C=CC(=O)N1CC[C@@H](N(C)c2nc(OC[C@@H]3CCCN3CC)nc3c(F)c(-c4ccc(F)c5sc(N)c(C#N)c45)c(C(F)(F)F)cc23)[C@@H]1C [Compound 30] | > 7.00 | B (50≤percent of modification <70%) | A (percent of modification ≥70%) |  | 
C=CC(=O)N1CC[C@@H](N(C)c2nc(OC[C@@H]3C[C@@H](F)CN3C)nc3c(F)c(-c4ccc(F)c5sc(N)c(C#N)c45)c(C(F)(F)F)cc23)[C@@H]1C [Compound 32] | > 7.00 | C (10%≤percent of modification <50%) | A (percent of modification ≥70%) |  | 
C=CC(=O)N1C[C@@H](C)N(c2nc(OC[C@@]34CCCN3C[C@H](F)C4)nc3c(F)c(-c4ccc(F)c5sc(N)c(C#N)c45)c(C(F)(F)F)cc23)C[C@@H]1C [Compound 124] | > 7.00 |  | C (10%≤percent of modification <50%) | B (50≤percent of modification <70%) | 
C=CC(=O)N1CC[C@@H](N(C)c2nc(OC[C@@]34CCCN3C[C@H](OC)C4)nc3c(F)c(-c4ccc(F)c5sc(N)c(C#N)c45)c(C(F)(F)F)cc23)[C@H]1C [Compound 151] | > 7.00 | A (percent of modification ≥70%) | A (percent of modification ≥70%) |  | 
